Assay results taken from PMC9814697, “β-Hydroxylation of α-amino-β-hydroxylbutanoyl-glycyluridine catalyzed by a nonheme hydroxylase ensures the maturation of caprazamycin” (Communications Chemistry, 2022).

What was measured:
Cpz27 = target: T1, Cpz27 (Streptomyces sp. MK730-62F2, UniProt C4NCL4); assay: LC-MS turnover; format: biochemical; conditions: 1 mM, with 500 μM compound 13, 1 mM Mg, pH 8.0, 28 °C
T1 construct: pGM1202, Streptomyces lividans TK64, His6-tag kept

Cpz15 = target: T2, Cpz15 (Streptomyces sp. MK730-62F2, UniProt C4NCK2); assay: LC-MS turnover; format: biochemical; conditions: 1 mM UMP, 1.5 mM αKG, ascorbate, FeSO4, pH 8.0, 28 °C; product uridine 5'-aldehyde
T2 construct: pET28a, E. coli BL21(DE3), His6-tag kept
T2 sequence (C4NCK2 1-274): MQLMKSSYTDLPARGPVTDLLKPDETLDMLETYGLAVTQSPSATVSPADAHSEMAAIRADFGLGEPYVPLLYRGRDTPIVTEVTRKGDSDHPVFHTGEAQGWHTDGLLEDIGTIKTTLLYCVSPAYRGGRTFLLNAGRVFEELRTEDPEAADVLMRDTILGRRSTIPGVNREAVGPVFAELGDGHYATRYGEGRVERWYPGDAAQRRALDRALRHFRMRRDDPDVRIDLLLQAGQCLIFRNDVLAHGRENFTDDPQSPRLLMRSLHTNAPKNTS

Cpz10 = target: T3, Cpz10 (Streptomyces sp. MK730-62F2, UniProt C4NCJ7); assay: X-ray crystal structure; format: binding
T3 construct: pET28a, E. coli BL21(DE3), His6-tag kept; homodimer in solution
T3 sequence (C4NCJ7 1-182): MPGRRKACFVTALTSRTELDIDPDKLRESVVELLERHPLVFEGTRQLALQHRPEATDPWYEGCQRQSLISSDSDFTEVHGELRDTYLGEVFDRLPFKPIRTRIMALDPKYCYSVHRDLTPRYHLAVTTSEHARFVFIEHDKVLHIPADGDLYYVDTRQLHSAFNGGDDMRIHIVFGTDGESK

[1] = substrate: CSCC[C@H](N)C(=O)O; assay: LC assay, Michaelis-Menten; format: biochemical, Streptomyces sp. MK730-62F2; conditions: pseudo-first order condition, αKG, ascorbate, FeSO4, pH 7.5, 28 °C, sulfoxidation to MSO

T1 sequence (C4NCL4 entry or part of it): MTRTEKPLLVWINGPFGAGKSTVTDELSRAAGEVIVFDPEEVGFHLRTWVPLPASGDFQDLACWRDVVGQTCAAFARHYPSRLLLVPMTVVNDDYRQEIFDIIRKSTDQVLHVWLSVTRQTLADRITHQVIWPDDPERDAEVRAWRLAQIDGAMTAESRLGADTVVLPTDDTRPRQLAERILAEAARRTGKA

**Q.** `Nc1ncnc2c1ncn2[C@@H]1O[C@H](COP(=O)(O)OP(=O)(O)OP(=O)(O)O)[C@@H](O)[C@H]1O` [ATP] was tested. Which LC-MS turnover (Cpz27) did it give?
**A.** The LC-MS turnover was “at the expense of one molecule of ATP”.

**Q.** Which LC-MS turnover (Cpz15) does the source give for `O=c1ccn([C@@H]2O[C@H](COP(=O)(O)O)[C@@H](O)[C@H]2O)c(=O)[nH]1` [UMP] here?
**A.** The LC-MS turnover was “a new peak emerge on the LC trace concomitant with dwindling of UMP”.

**Q.** With `O=C(O)CCC(=O)O` [succinic acid] as the molecule, how does the X-ray crystal structure (Cpz10; formed in crystal from soaked αKG, with compound 12 and Fe1) read?
**A.** The X-ray crystal structure was “αKG soaked in the crystals has been converted to succinic acid”.

**Q.** `O=C(O)CCC(=O)C(=O)O` [αKG] was tested. Which X-ray crystal structure (Cpz10; Fe1 present, 1.9 Å, bidentate to Fe1) did it give?
**A.** The X-ray crystal structure was “two complexes (with αKG (PDB code: 7V4M)”.

B1: Cpz10 (Streptomyces sp. MK730-62F2) (protein)
chain: T3 sequence (C4NCJ7 1-182)
notes: pET28a, E. coli BL21(DE3), His6-tag kept; homodimer in solution
**Q.** Which Km [1] does the source give for B1 here?
**A.** Its Km is 892.1 ± 9 µM.

**Q.** What about the kcat [1] of the same molecule?
**A.** The kcat was 0.977 ± 0.013 s⁻¹.
